# From PubChem BioAssay (NCI)
#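 Method: 48-hour compound exposure of cells in 96-well plates, five concentrations, linear interpolation of endpoints. TGI marks complete inhibition of growth.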
# Assays:
# Experiment in all cases: NCI tumour cell line growth inhibition, 48 h
# [1] = test system: HCT-15 colon
# [2] = test system: HS 578T breast
# [3] = test system: SN12C renal
# [4] = test system: SF-295 CNS
# [5] = test system: OVCAR-5 ovarian
# [6] = test system: NCI-H23 lung
# [7] = test system: 786-0 renal
# [8] = test system: OVCAR-8 ovarian
# [9] = test system: T-47D breast
# [10] = test system: A498 renal
# [11] = test system: OVCAR-4 ovarian
# [12] = test system: MDA-N
# [13] = test system: SF-268 CNS
# [14] = test system: SNB-19 CNS
# [15] = test system: MALME-3M melanoma
# [16] = test system: SW-620 colon
# [17] = test system: HL-60(TB) leukemia
# [18] = test system: LOX IMVI melanoma
# [19] = test system: PC-3 prostate
# [20] = test system: MDA-MB-435
# [21] = test system: SK-MEL-28 melanoma
# [22] = test system: COLO 205 colon
# [23] = test system: SF-539 CNS
# [24] = test system: BT-549 breast
# [25] = test system: HOP-62 NSCLC
# [26] = test system: RXF 393 renal
# [27] = test system: SK-OV-3 ovarian
# [28] = test system: OVCAR-3 ovarian
# [29] = test system: NCI-H226 lung
# [30] = test system: TK-10 renal
# [31] = test system: CCRF-CEM leukemia
# [32] = test system: NCI-H522 lung
# [33] = test system: NCI/ADR-RES ovarian
# [34] = test system: MOLT-4 leukemia
# [35] = test system: RPMI-8226 leukemia
# [36] = test system: M14 melanoma
# [37] = test system: K-562 leukemia
# [38] = test system: DU-145 prostate
# [39] = test system: MDA-MB-231 breast
# [40] = test system: SK-MEL-2 melanoma
# [41] = test system: A549 NSCLC
# [42] = test system: IGROV1 ovarian
# [43] = test system: CAKI-1 renal
# [44] = test system: SR leukemia
# [45] = test system: U251 CNS
# [46] = test system: UO-31 renal
# [47] = test system: HCT-116 colon
# [48] = test system: HT29 colon
# [49] = test system: UACC-62 melanoma
# [50] = test system: SK-MEL-5 melanoma
# [51] = test system: UACC-257 melanoma
# [52] = test system: ACHN renal
# [53] = test system: NCI-H460 lung
# [54] = test system: HOP-92 NSCLC
# [55] = test system: KM12 colon
# [56] = test system: EKVX NSCLC
# [57] = test system: HCC-2998 colon
# [58] = test system: MCF7 breast
# [59] = test system: SNB-75 CNS
smiles,measurement,setting,value
c1ccc(-c2sc(-c3ccccc3)c3c2C2CCC3C2)cc1,TGI,[1],> 100 µM
same,TGI,[2],70.6 µM
same,TGI,[3],> 100 µM
same,TGI,[4],> 100 µM
same,TGI,[5],> 100 µM
same,TGI,[6],> 100 µM
same,TGI,[7],> 100 µM
same,TGI,[8],> 100 µM
same,TGI,[9],> 100 µM
same,TGI,[10],> 100 µM
same,TGI,[11],> 100 µM
same,TGI,[12],> 100 µM
same,TGI,[13],> 100 µM
same,TGI,[14],> 100 µM
same,TGI,[15],> 100 µM
same,TGI,[16],> 100 µM
same,TGI,[17],> 100 µM
same,TGI,[18],> 100 µM
same,TGI,[19],72.6 µM
same,TGI,[20],> 100 µM
same,TGI,[21],> 100 µM
same,TGI,[22],38.1 µM
same,TGI,[23],67.7 µM
same,TGI,[24],> 100 µM
same,TGI,[25],> 100 µM
same,TGI,[26],84.5 µM
same,TGI,[27],> 100 µM
same,TGI,[28],> 100 µM
same,TGI,[29],83.3 µM
same,TGI,[30],89.7 µM
same,TGI,[31],> 100 µM
same,TGI,[32],60.5 µM
same,TGI,[33],> 100 µM
same,TGI,[34],> 100 µM
same,TGI,[35],44.9 µM
same,TGI,[36],> 100 µM
same,TGI,[37],> 100 µM
same,TGI,[38],> 100 µM
same,TGI,[39],> 100 µM
same,TGI,[40],39.5 µM
same,TGI,[41],> 100 µM
same,TGI,[42],> 100 µM
same,TGI,[43],> 100 µM
same,TGI,[44],56.8 µM
same,TGI,[45],> 100 µM
same,TGI,[46],58.3 µM
same,TGI,[47],> 100 µM
same,TGI,[48],34.5 µM
same,TGI,[49],> 100 µM
same,TGI,[50],49.7 µM
same,TGI,[51],> 100 µM
same,TGI,[52],> 100 µM
same,TGI,[53],88.2 µM
same,TGI,[54],47.9 µM
same,TGI,[55],> 100 µM
same,TGI,[56],> 100 µM
OCCSCc1cc(Cl)cc(Cl)c1O,TGI,[1],> 100 µM
same,TGI,[2],> 100 µM
same,TGI,[3],> 100 µM
same,TGI,[4],> 100 µM
same,TGI,[5],> 100 µM
same,TGI,[6],> 100 µM
same,TGI,[7],> 100 µM
same,TGI,[8],> 100 µM
same,TGI,[9],> 100 µM
same,TGI,[10],> 100 µM
same,TGI,[11],> 100 µM
same,TGI,[12],> 100 µM
same,TGI,[13],> 100 µM
same,TGI,[14],> 100 µM
same,TGI,[15],> 100 µM
same,TGI,[16],> 100 µM
same,TGI,[18],> 100 µM
same,TGI,[19],> 100 µM
same,TGI,[20],> 100 µM
same,TGI,[21],> 100 µM
same,TGI,[22],> 100 µM
same,TGI,[24],> 100 µM
same,TGI,[25],> 100 µM
same,TGI,[26],> 100 µM
same,TGI,[27],> 100 µM
same,TGI,[28],> 100 µM
same,TGI,[29],> 100 µM
same,TGI,[30],> 100 µM
same,TGI,[31],> 100 µM
same,TGI,[57],> 100 µM
same,TGI,[32],> 100 µM
same,TGI,[33],> 100 µM
same,TGI,[34],> 100 µM
same,TGI,[35],> 100 µM
same,TGI,[58],> 100 µM
same,TGI,[36],> 100 µM
same,TGI,[37],> 100 µM
same,TGI,[38],> 100 µM
same,TGI,[39],> 100 µM
same,TGI,[41],> 100 µM
same,TGI,[42],> 100 µM
same,TGI,[43],> 100 µM
same,TGI,[45],> 100 µM
same,TGI,[46],> 100 µM
same,TGI,[47],> 100 µM
same,TGI,[48],> 100 µM
same,TGI,[49],> 100 µM
same,TGI,[50],> 100 µM
same,TGI,[51],> 100 µM
same,TGI,[52],> 100 µM
same,TGI,[53],> 100 µM
same,TGI,[54],> 100 µM
same,TGI,[55],> 100 µM
same,TGI,[56],> 100 µM
O=C1CC(NC2CC(=O)c3c(Br)sc(Br)c32)c2c(Br)sc(Br)c21 (centres undefined),TGI,[1],9.2 µM
same,TGI,[2],33.2 µM
same,TGI,[3],3.42 µM
same,TGI,[4],27.8 µM
same,TGI,[5],41.4 µM
same,TGI,[6],28.3 µM
same,TGI,[7],2.9 µM
same,TGI,[8],10.3 µM
same,TGI,[9],8.25 µM
same,TGI,[10],32.6 µM
same,TGI,[11],> 78.1 µM
same,TGI,[12],5.82 µM
same,TGI,[13],26.2 µM
same,TGI,[14],28.4 µM
same,TGI,[15],5.62 µM
same,TGI,[16],4.95 µM
same,TGI,[17],7.65 µM
same,TGI,[18],4.68 µM
same,TGI,[19],7.52 µM
same,TGI,[20],11.2 µM
same,TGI,[21],> 55.4 µM
same,TGI,[22],8.77 µM
same,TGI,[24],38.9 µM
same,TGI,[25],12.2 µM
same,TGI,[26],8.86 µM
same,TGI,[27],32.6 µM
same,TGI,[28],> 100 µM
same,TGI,[29],34.1 µM
same,TGI,[30],6.47 µM
same,TGI,[31],3.17 µM
same,TGI,[57],30.8 µM
same,TGI,[32],3.69 µM
same,TGI,[33],> 86.8 µM
same,TGI,[34],> 100 µM
same,TGI,[58],8.44 µM
same,TGI,[36],11.9 µM
same,TGI,[37],> 21.5 µM
same,TGI,[38],16.5 µM
same,TGI,[39],10.3 µM
same,TGI,[40],14.5 µM
same,TGI,[41],38.9 µM
same,TGI,[42],8.43 µM
same,TGI,[43],9.72 µM
same,TGI,[45],3.36 µM
same,TGI,[46],4.46 µM
same,TGI,[47],6.46 µM
same,TGI,[48],8.91 µM
same,TGI,[49],24.2 µM
same,TGI,[50],18.2 µM
same,TGI,[51],4.93 µM
same,TGI,[59],31.4 µM
same,TGI,[52],5.22 µM
same,TGI,[53],38.2 µM
same,TGI,[54],21.5 µM
same,TGI,[55],6.03 µM
same,TGI,[56],22.7 µM
O=C1CC(NCCCNC2CC(=O)c3c(Br)sc(Br)c32)c2c(Br)sc(Br)c21 (centres undefined),TGI,[1],3.56 µM
same,TGI,[2],> 44.6 µM
same,TGI,[3],4.77 µM
same,TGI,[4],14.3 µM
same,TGI,[5],4.85 µM
same,TGI,[6],4.36 µM
same,TGI,[7],2.63 µM
same,TGI,[9],5.28 µM
same,TGI,[11],12.7 µM
same,TGI,[12],5.54 µM
same,TGI,[13],11.7 µM
same,TGI,[14],6.75 µM
same,TGI,[15],4.21 µM
same,TGI,[16],> 100 µM
same,TGI,[17],> 100 µM
same,TGI,[19],3.9 µM
same,TGI,[20],4.28 µM
same,TGI,[21],> 24.3 µM
same,TGI,[22],5.89 µM
same,TGI,[23],8.56 µM
same,TGI,[24],4.23 µM
same,TGI,[25],14 µM
same,TGI,[26],3.62 µM
same,TGI,[27],14.9 µM
same,TGI,[29],12.6 µM
same,TGI,[30],4.61 µM
same,TGI,[33],5.64 µM
same,TGI,[34],1.21 µM
same,TGI,[35],> 100 µM
same,TGI,[36],4.39 µM
same,TGI,[38],3.64 µM
same,TGI,[39],4.3 µM
same,TGI,[40],5.01 µM
same,TGI,[41],> 100 µM
same,TGI,[42],3.7 µM
same,TGI,[43],3.77 µM
same,TGI,[44],> 100 µM
same,TGI,[45],2.82 µM
same,TGI,[47],2.41 µM
same,TGI,[48],4.96 µM
same,TGI,[49],3.86 µM
same,TGI,[50],6.04 µM
same,TGI,[51],> 35.8 µM
same,TGI,[59],7.68 µM
same,TGI,[52],3.55 µM
same,TGI,[53],> 100 µM
same,TGI,[55],3.5 µM
same,TGI,[56],4.8 µM
